# Data: PubChem BioAssay (NCI)
#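 GI50: concentration for 50% inhibition of growth. TGI: concentration producing complete growth inhibition.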
# What was measured:
# Test in all cases: inhibition of tumour cell growth, NCI panel, 384-well format
# 786-0 renal = test system: 786-0 renal
# A498 renal = test system: A498 renal
# A549 NSCLC = test system: A549 NSCLC
# ACHN renal = test system: ACHN renal
# BT-549 breast = test system: BT-549 breast
# CAKI-1 renal = test system: CAKI-1 renal
# COLO 205 colon = test system: COLO 205 colon
# DU-145 prostate = test system: DU-145 prostate
# EKVX NSCLC = test system: EKVX NSCLC
# HCT-116 colon = test system: HCT-116 colon
# HCT-15 colon = test system: HCT-15 colon
# HL-60(TB) leukemia = test system: HL-60(TB) leukemia
# HOP-62 NSCLC = test system: HOP-62 NSCLC
# HOP-92 NSCLC = test system: HOP-92 NSCLC
# HS 578T breast = test system: HS 578T breast
# HT29 colon = test system: HT29 colon
# IGROV1 ovarian = test system: IGROV1 ovarian
# K-562 leukemia = test system: K-562 leukemia
# KM12 colon = test system: KM12 colon
# M14 melanoma = test system: M14 melanoma
# MALME-3M melanoma = test system: MALME-3M melanoma
# MCF7 breast = test system: MCF7 breast
# MDA-MB-231 breast = test system: MDA-MB-231 breast
# MDA-MB-435 melanoma = test system: MDA-MB-435 melanoma
# MDA-MB-468 breast = test system: MDA-MB-468 breast
# MOLT-4 leukemia = test system: MOLT-4 leukemia
# NCI-H226 lung = test system: NCI-H226 lung
# NCI-H23 lung = test system: NCI-H23 lung
# NCI-H322M lung = test system: NCI-H322M lung
# NCI-H460 NSCLC = test system: NCI-H460 NSCLC
# NCI-H522 lung = test system: NCI-H522 lung
# OVCAR-3 ovarian = test system: OVCAR-3 ovarian
# OVCAR-4 ovarian = test system: OVCAR-4 ovarian
# OVCAR-5 ovarian = test system: OVCAR-5 ovarian
# OVCAR-8 ovarian = test system: OVCAR-8 ovarian
# PC-3 prostate = test system: PC-3 prostate
# RXF 393 renal = test system: RXF 393 renal
# SF-268 CNS = test system: SF-268 CNS
# SF-295 CNS = test system: SF-295 CNS
# SF-539 CNS = test system: SF-539 CNS
# SK-MEL-2 melanoma = test system: SK-MEL-2 melanoma
# SK-MEL-28 melanoma = test system: SK-MEL-28 melanoma
# SK-MEL-5 melanoma = test system: SK-MEL-5 melanoma
# SK-OV-3 ovarian = test system: SK-OV-3 ovarian
# SN12C renal = test system: SN12C renal
# SNB-19 CNS = test system: SNB-19 CNS
# SNB-75 CNS = test system: SNB-75 CNS
# SR leukemia = test system: SR leukemia
# SW-620 colon = test system: SW-620 colon
# T-47D breast = test system: T-47D breast
# TK-10 renal = test system: TK-10 renal
# U251 glioblastoma = test system: U251 glioblastoma
# UACC-257 melanoma = test system: UACC-257 melanoma
# UACC-62 melanoma = test system: UACC-62 melanoma
# UO-31 renal = test system: UO-31 renal
smiles,measurement,setting,value
COc1cc(Nc2ncc(F)c(Nc3ccc4c(n3)N(COP(=O)(O)O)C(=O)C(C)(C)O4)n2)cc(OC)c1OC,GI50,786-0 renal,1.32 µM
same,TGI,786-0 renal,2.99 µM
same,GI50,A498 renal,1.74 µM
same,TGI,A498 renal,3.35 µM
same,GI50,A549 NSCLC,1.52 µM
same,TGI,A549 NSCLC,3.12 µM
same,GI50,ACHN renal,1.25 µM
same,TGI,ACHN renal,5.82 µM
same,GI50,BT-549 breast,1.3 µM
same,TGI,BT-549 breast,2.74 µM
same,GI50,CAKI-1 renal,0.974 µM
same,TGI,CAKI-1 renal,2.16 µM
same,GI50,COLO 205 colon,1.64 µM
same,TGI,COLO 205 colon,3.67 µM
same,GI50,DU-145 prostate,1.89 µM
same,TGI,DU-145 prostate,7.54 µM
same,GI50,EKVX NSCLC,1.09 µM
same,TGI,EKVX NSCLC,2.63 µM
same,GI50,HCT-116 colon,1.93 µM
same,TGI,HCT-116 colon,6.52 µM
same,GI50,HCT-15 colon,3.06 µM
same,TGI,HCT-15 colon,> 100 µM
same,GI50,HL-60(TB) leukemia,1.57 µM
same,TGI,HL-60(TB) leukemia,3.03 µM
same,GI50,HOP-62 NSCLC,1.45 µM
same,TGI,HOP-62 NSCLC,3.71 µM
same,GI50,HOP-92 NSCLC,1.26 µM
same,TGI,HOP-92 NSCLC,2.6 µM
same,GI50,HS 578T breast,1.26 µM
same,TGI,HS 578T breast,2.55 µM
same,GI50,HT29 colon,1.41 µM
same,TGI,HT29 colon,4.49 µM
same,GI50,IGROV1 ovarian,0.427 µM
same,TGI,IGROV1 ovarian,1.6 µM
same,GI50,K-562 leukemia,2.63 µM
same,TGI,K-562 leukemia,10.8 µM
same,GI50,KM12 colon,2.9 µM
same,TGI,KM12 colon,10.9 µM
same,GI50,M14 melanoma,2.41 µM
same,TGI,M14 melanoma,38.8 µM
same,GI50,MALME-3M melanoma,2.3 µM
same,TGI,MALME-3M melanoma,> 100 µM
same,GI50,MCF7 breast,1.91 µM
same,TGI,MCF7 breast,> 100 µM
same,GI50,MDA-MB-231 breast,1.98 µM
same,TGI,MDA-MB-231 breast,5.78 µM
same,GI50,MDA-MB-435 melanoma,2.35 µM
same,TGI,MDA-MB-435 melanoma,25.4 µM
same,GI50,MDA-MB-468 breast,1.7 µM
same,TGI,MDA-MB-468 breast,3.34 µM
same,GI50,MOLT-4 leukemia,1.38 µM
same,TGI,MOLT-4 leukemia,3.03 µM
same,GI50,NCI-H226 lung,0.64 µM
same,TGI,NCI-H226 lung,2.49 µM
same,GI50,NCI-H23 lung,1.38 µM
same,TGI,NCI-H23 lung,4.4 µM
same,GI50,NCI-H322M lung,1.75 µM
same,TGI,NCI-H322M lung,4.85 µM
same,GI50,NCI-H460 NSCLC,0.534 µM
same,TGI,NCI-H460 NSCLC,11.3 µM
same,GI50,NCI-H522 lung,0.679 µM
same,TGI,NCI-H522 lung,2.2 µM
same,GI50,OVCAR-3 ovarian,1.97 µM
same,TGI,OVCAR-3 ovarian,11.1 µM
same,GI50,OVCAR-4 ovarian,1.45 µM
same,TGI,OVCAR-4 ovarian,4.12 µM
same,GI50,OVCAR-5 ovarian,1.94 µM
same,TGI,OVCAR-5 ovarian,42.8 µM
same,GI50,OVCAR-8 ovarian,1.61 µM
same,TGI,OVCAR-8 ovarian,3.01 µM
same,GI50,PC-3 prostate,2.73 µM
same,TGI,PC-3 prostate,12.3 µM
same,GI50,RXF 393 renal,0.241 µM
same,TGI,RXF 393 renal,0.887 µM
same,GI50,SF-268 CNS,1.45 µM
same,TGI,SF-268 CNS,2.81 µM
same,GI50,SF-295 CNS,2.5 µM
same,TGI,SF-295 CNS,88.3 µM
same,GI50,SF-539 CNS,0.618 µM
same,TGI,SF-539 CNS,1.87 µM
same,GI50,SK-MEL-2 melanoma,2.93 µM
same,TGI,SK-MEL-2 melanoma,16.5 µM
same,GI50,SK-MEL-28 melanoma,2.34 µM
same,TGI,SK-MEL-28 melanoma,> 100 µM
same,GI50,SK-MEL-5 melanoma,2.51 µM
same,TGI,SK-MEL-5 melanoma,6.66 µM
same,GI50,SK-OV-3 ovarian,0.871 µM
same,TGI,SK-OV-3 ovarian,2.23 µM
same,GI50,SN12C renal,0.724 µM
same,TGI,SN12C renal,7.14 µM
same,GI50,SNB-19 CNS,1.92 µM
same,TGI,SNB-19 CNS,4.97 µM
same,GI50,SNB-75 CNS,0.505 µM
same,TGI,SNB-75 CNS,1.68 µM
same,GI50,SR leukemia,1.51 µM
same,TGI,SR leukemia,2.95 µM
same,GI50,SW-620 colon,1.88 µM
same,TGI,SW-620 colon,6.61 µM
same,GI50,T-47D breast,2.37 µM
same,TGI,T-47D breast,9.31 µM
same,GI50,TK-10 renal,1.38 µM
same,TGI,TK-10 renal,3.13 µM
same,GI50,U251 glioblastoma,1.7 µM
same,TGI,U251 glioblastoma,6.87 µM
same,GI50,UACC-257 melanoma,4.06 µM
same,TGI,UACC-257 melanoma,> 100 µM
same,GI50,UACC-62 melanoma,1.22 µM
same,TGI,UACC-62 melanoma,3.45 µM
same,GI50,UO-31 renal,0.654 µM
same,TGI,UO-31 renal,2.83 µM
